Assay results published in patent US5244898A, “Benzoheterocyclic compounds” (Otsuka Pharmaceutical Co., Ltd., priority 1991, dated 1993).
Counter-ions that a name gives are not always drawn.

What was measured:
V1 Receptor = V1 Receptor (Rattus norvegicus, UniProt P30560); test: V1 Receptor Binding Assay ([3H]-Arg-vasopressin, rat liver plasma membrane); settings: 37° C., 10 minutes, pH 8.0
Experimental: After incubation, the mixture is filtered three times using the glass filter (GF/F) so as to separate the membrane preparation combining with vasopressin and then washed with the buffer (5 ml). This glass filter is taken out and mixed with liquid scintillation cocktail. The amount of [^3 H]-vasopressin combining with the membrane is measured by liquid scintillation counter and the rate of the inhibitory effect of the test compound is estimated according to the following equation.
(§1) C1 : The amount of [^3 H]-vasopressin combining with the membrane in the presence of the test compound of a known amount.
(§2) C0 : The amount of [^3 H]-vasopressin combining with the membrane in the absence of the test compound.
B1 : The amount of [^3 H]-vasopressin combining with the membrane in the presence of the excess amount of vasopressin (10^-6 M).
(§3) The results are expressed as IC50 value, which is the concentration of the test compound required to achieve the inhibitory effect in the rate of 50%.

V2 Receptor = molecular target: T1, V2 Receptor (Rattus norvegicus, UniProt Q00788); test: V2 Receptor Binding Assay ([3H]-Arg-vasopressin, rat kidney plasma membrane); settings: 4° C., pH 8.0
T1 construct: rat kidney plasma membrane preparations; from tissue; host or cells: rat kidney plasma membranes
T1 sequence (Q00788 whole entry): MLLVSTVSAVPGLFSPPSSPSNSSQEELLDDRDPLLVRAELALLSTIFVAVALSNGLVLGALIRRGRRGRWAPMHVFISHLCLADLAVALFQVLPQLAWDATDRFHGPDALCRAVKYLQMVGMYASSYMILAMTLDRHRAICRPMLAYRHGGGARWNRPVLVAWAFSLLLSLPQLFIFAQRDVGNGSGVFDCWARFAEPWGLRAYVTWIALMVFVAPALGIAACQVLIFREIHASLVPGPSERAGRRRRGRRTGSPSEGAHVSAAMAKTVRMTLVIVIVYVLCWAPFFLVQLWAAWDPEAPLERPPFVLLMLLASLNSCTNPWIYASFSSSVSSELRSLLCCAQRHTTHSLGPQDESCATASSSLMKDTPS
Experimental: Chem., 253, 3211 (1978)], the plasma membrane (100000 dpm, 4×10^-10M) of [^3 H]-Arg-vasopressin and a test compound (0.6 mg, 10^-10 -10^-5 M) are incubated at 4° C. for 3 hours in 100 mM Tris-HCl buffer pH: 8.0 (250 μl ) containing 5 mM MgCl2, 1 mM EDTA and 0.1 % BSA. After incubation, the mixture is filtered using the glass filter (GF/F) so as to separate the membrane preparation combining with vasopressin and then washed twice with the buffer (5 ml). This glass filter is taken out and mixed with liquid scintillation cocktail. The amount of [^3 H]-vasopressin combining with the membrane is measured by liquid scintillation counter and the rate of the inhibitory effect of the test compound is estimated according to the following equation. [formula]
as §1, §2
B1 : The amount of [3H-vasopressin combining with the membrane in the presence of the excess amount of vasopressin (10^-6 M).
as §3

Chain of V1 Receptor (P30560 whole entry): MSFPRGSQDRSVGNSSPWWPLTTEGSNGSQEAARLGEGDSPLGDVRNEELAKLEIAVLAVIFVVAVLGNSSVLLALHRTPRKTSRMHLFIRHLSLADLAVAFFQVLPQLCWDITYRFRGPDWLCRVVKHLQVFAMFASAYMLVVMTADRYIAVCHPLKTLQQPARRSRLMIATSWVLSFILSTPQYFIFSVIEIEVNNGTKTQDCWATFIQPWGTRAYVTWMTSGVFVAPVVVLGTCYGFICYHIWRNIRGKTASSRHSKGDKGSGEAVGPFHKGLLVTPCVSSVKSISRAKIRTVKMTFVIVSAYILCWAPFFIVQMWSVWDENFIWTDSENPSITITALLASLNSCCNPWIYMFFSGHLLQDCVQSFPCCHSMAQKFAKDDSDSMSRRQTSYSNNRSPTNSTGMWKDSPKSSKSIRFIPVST

SMILES	IC50 (V1 Receptor)	IC50 (V2 Receptor)
CSCC[C@H](N)C(=O)OC1CCCN(C(=O)c2ccc(NC(=O)c3ccccc3C)cc2Cl)c2ccccc21 (single isomer, unassigned) [Test Compound 10, 5-(L-Methionyloxy)-1-[2-chloro-4-(2-methylbenzoylamino)benzoyl]-2,3,4,5-tetrahydro-1H-benzazepine hydrochloride]	–	83 nM
CN(C)C1CCCN(C(=O)c2ccc(NC(=O)Cc3ccccc3Cl)cc2)c2ccccc21 (centres unmarked) [Test Compound 3, 5-Dimethylamino-1-{4-[2-(2-chlorophenyl)acetylamino]benzoyl}-2,3,4,5-tetrahydro-1H-benzazepine]	–	61 nM
Cc1ccccc1CC(=O)Nc1ccc(C(=O)N2CCCC(O)c3cc(Cl)ccc32)c(C)c1 (centres unmarked) [Test Compound 16, 5-Hydroxy-7-chloro-1-{2-methyl-4-[2-(2-methylphenyl)acetylamino]benzoyl}-2,3,4,5-tetrahydro-1H-benzazepine]	320 nM	4 nM
Cc1ccccc1C(=O)Nc1ccc(C(=O)N2CCCC(OC(=O)[C@@H](N)C(C)C)c3cc(Cl)ccc32)c(C)c1 (single isomer, unassigned) [Test Compound 15, 5-(L-Valyloxy)-7-chloro-1-[2-methyl-4-(2-methylbenzoylamino)benzoyl]-2,3,4,5-tetrahydro-1H-benzazepine hydrochloride]	180 nM	14 nM
COc1cc(C(=O)N2CCCCc3cc(Cl)ccc32)ccc1NC(=O)c1ccccc1OCCCCN1CCN(C(C)=O)CC1 [Test Compound 56, 7-Chloro-1-[3-methoxy-4-{2-[4-(4-acetyl-1-piperazinyl)butoxy]benzoylamino}benzoyl]-2,3,4,5-tetrahydro-1H-benzazepine]	7 nM	–
CN(C)C1CCCN(C(=O)c2ccc(NC(=O)c3ccccc3Cl)cc2Cl)c2ccc(O)cc21 (centres unmarked) [Test Compound 8, 5-Dimethylamino-7-hydroxy-1-[2-chloro-4-(2-chlorobenzoylamino)benzoyl]-2,3,4,5-tetrahydro-1H-benzazepine]	–	250 nM
COc1cc(NC(=O)Cc2ccccc2C)ccc1C(=O)N1CCCC(O)c2cc(Cl)ccc21 (centres unmarked) [Test Compound 18, 5-Hydroxy-7-chloro-1-{2-methoxy-4-[2-(2-methylphenyl)acetylamino]benzoyl}-2,3,4,5-tetrahydro-1H-benzazepine]	55 nM	4 nM
CN(C)C(=O)COc1ccc2c(c1)C(N(C)C)CCCN2C(=O)c1ccc(NC(=O)c2ccccc2Cl)cc1Cl (centres unmarked) [Test Compound 20, 5-Dimethylamino-7-dimethylaminocarbonylmethoxy-1-[2-chloro-4-(2-chlorobenzoylamino)benzoyl]-2,3,4,5 tetrahydro-1H-benzazepine]	–	5600 nM
Cc1ccccc1C(=O)Nc1ccc(C(=O)N2CCCC(OC(=O)[C@H](C)N)c3ccccc32)c(Cl)c1 (stereo partly drawn) [Test Compound 9, 5-(L-Alanyloxy)-1-[2-chloro-4-(2-methylbenzoylamino)benzoyl]-2,3,4,5-tetrahydro-1H-benzazepine hydrochloride]	–	17 nM
O=C(Nc1ccc(C(=O)N2CCCC(O)(CO)c3cc(O)ccc32)c(Cl)c1)c1ccccc1Cl (centres unmarked) [Test Compound 19, 5,7-Dihydroxy-5-hydroxymethyl-1-[2-chloro-4-(2-chlorobenzoylamino)benzoyl]-2,3,4,5-tetrahydro-1H-benzazepine]	–	2800 nM
Cc1ccccc1C(=O)Nc1ccc(C(=O)N2CCCC(OC(=O)[C@@H]3CCCN3)c3ccccc32)c(Cl)c1 (single isomer, unassigned) [Test Compound 12, 5-(L-Prolyloxy)-1-[2-chloro-4-(2-methylbenzoylamino)benzoyl]-2,3,4,5-tetrahydro-1H-benzazepine hydrochloride]	–	9 nM
CC(=O)Oc1ccc2c(c1)C(N(C)C)CCCN2C(=O)c1ccc(NC(=O)c2ccccc2Cl)cc1Cl (centres unmarked) [Test Compound 11]	–	110 nM
CN(C)C1CCCN(C(=O)c2ccc(NC(=O)Cc3ccccc3F)cc2)c2ccccc21 (centres unmarked) [Test Compound 5, 5-Dimethylamino-1-{4-[2-(2-fluorophenyl)acetylamino]benzoyl}-2,3,4,5-tetrahydro-1H-benzazepine]	–	59 nM
CN(C)C1CCCN(C(=O)c2ccc(NC(=O)Cc3ccccc3[N+](=O)[O-])cc2)c2ccccc21 (centres unmarked) [Test Compound 7, 5-Dimethylamino-1-{4-[2-(2-nitrophenyl)acetylamino]benzoyl}-2,3,4,5-tetrahydro-1H-benzazepine]	–	140 nM
COc1ccccc1CC(=O)Nc1ccc(C(=O)N2CCCC(N(C)C)c3ccccc32)cc1 (centres unmarked) [Test Compound 4, 5-Dimethylamino-1-{4-[2-(2-methoxyphenyl)acetylamino]benzoyl}-2,3,4,5-tetrahydro-1H-benzazepine]	–	61 nM
CCOC(=O)CNC(=O)COC1CCCN(C(=O)c2ccc(NC(=O)c3ccccc3C)cc2Cl)c2ccc(F)cc21 (centres unmarked) [Test Compound 21, 5-Ethoxycarbonylmethylaminocarbonylmethoxy-7-fluoro-1-[2-chloro-4-(2-methylbenzoylamino)benzoyl]-2,3,4,5-tetrahydro-1H-benzazepine]	–	6 nM

Other lines, results leading:

IC50 (V1 Receptor)	IC50 (V2 Receptor)	SMILES
77 nM	9 nM	CCOC(=O)CC1CCCN(C(=O)c2ccc(NC(=O)c3ccccc3C)cc2OC)c2ccc(Cl)cc21 (centres unmarked) [Test Compound 26, 5-Ethoxycarbonylmethyl-7-chloro-1-[2-methoxy-4-(2-methylbenzoylamino)benzoyl]-2,3,4,5-tetrahydro-1H-benzazepine]
–	6.2 nM	Cc1ccccc1C(=O)Nc1ccc(C(=O)N2CCCC(OCCCN3CCOCC3)c3cc(F)ccc32)c(C)c1 (centres unmarked) [Test Compound 35, 5-(3-Morpholinopropoxy)-7-fluoro-1-[2-methyl-4-(2-methylbenzoylamino)benzoyl]-2,3,4,5-tetrahydro-1H-benzazepine]
9 nM	6 nM	COc1cc(NC(=O)c2ccccc2C)ccc1C(=O)N1CCCC(OCCN2CCCC2)c2cc(Cl)ccc21 (centres unmarked) [Test Compound 34, 5-[2-(1-Pyrrolidinyl)ethoxy]-7-chloro-1-[2-methoxy-4-(2-methylbenzoylamino)benzoyl]-2,3,4,5-tetrahydro-1H-benzazepine hydrochloride]
–	7.6 nM	Cc1ccccc1C(=O)Nc1ccc(C(=O)N2CCCC(OCCCn3ccnc3)c3cc(F)ccc32)c(C)c1 (centres unmarked) [Test Compound 36, 5-[3-(1-Imidazolyl)propoxy]-7-fluoro-1-[2-methyl-4-(2-methylbenzoylamino)benzoyl]-2,3,4,5-tetrahydro-1H-benzazepine]
89 nM	9 nM	COc1cc(NC(=O)c2ccccc2C)ccc1C(=O)N1CCCC(CN2CCN(C)CC2)c2cc(F)ccc21 (centres unmarked) [Test Compound 46, 5-[(4-Methyl-I-piperazinyl)methyl]-7-fluoro-1-[2-methoxy-4-(2-methylbenzoylamino)benzoyl]-2,3,4,5-tetrahydro-1H-benzazepine]
34 nM	7 nM	COc1cc(C(=O)N2CCCC(CC(=O)N3CCN(C)CC3)c3cc(Cl)ccc32)ccc1NC(=O)c1ccccc1C (centres unmarked) [Test Compound 27, 5-[(4-Methyl-1-piperazinyl)carbonylmethyl]-7-chloro-1-[3-methoxy-4-(2-methylbenzoylamino)benzoyl]-2,3,4,5-tetrahydro-1H-benzazepine]
–	9 nM	Cc1ccccc1C(=O)Nc1ccc(C(=O)N2CCCC(OCC(=O)NC3CCN(C)CC3)c3cc(Cl)ccc32)c(C)c1 (centres unmarked) [Test Compound 59, 5-[(1-Methyl-4-piperidinyl)aminocarbonyl-methoxy]-7-chloro-1-[2-methyl-4-(2-methylbenzoylamino)-benzoyl]-2,3,4,5-tetrahydro-1H-benzazepine]
–	3 nM	Cc1ccccc1C(=O)Nc1ccc(C(=O)N2CCCC(CC(=O)NCC(N)=O)c3cc(Cl)ccc32)c(C)c1 (centres unmarked) [Test Compound 62, 5-(Carbamoylmethylaminocarbonylmethyl)-7-chloro-1-[2-methyl-4-(2-methylbenzoylamino)benzoyl]-2,3,4,5-tetrahydro-1H-benzazepine]
–	13 nM	Cc1ccccc1C(=O)Nc1ccc(C(=O)N2CCCC(CC(=O)N3CCN(C)CC3)c3cc(Cl)ccc32)c(C)c1 (centres unmarked) [Test Compound 41, 5-[(4-Methyl-1-piperazinyl)carbonylmethyl]-7-chloro-1-[2-methyl-4-(2-methylbenzoylamino]benzoyl]-2,3,4,5-tetrahydro-1H-benzazepine]
–	18 nM	Cc1ccccc1C(=O)Nc1ccc(C(=O)N2CCCC(OCC(=O)NCC(=O)O)c3cc(F)ccc32)c(Cl)c1 (centres unmarked) [Test Compound 22, 5-Carboxymethylaminocarbonylmethoxy-7-fluoro-1-[2-chloro-4-(2-methylbenzoylamino)benzoyl]-2,3,4,5-tetrahydro-1H-benzazepine]
–	19 nM	COc1cc(NC(=O)c2ccccc2Cl)ccc1C(=O)N1CCCC(CC(=O)O)c2cc(Cl)ccc21 (centres unmarked) [Test Compound 31, 5-Carboxymethyl-7-chloro-1-[2-methoxy-4-(2-chlorobenzoylamino)benzoyl]-2,3,4,5-tetrahydro-1H-benzazepine]
–	52 nM	COc1cc(NC(=O)c2ccccc2OCCCCN2CCN(C(C)=O)CC2)ccc1C(=O)N1CCCCc2cc(Cl)ccc21 [Test Compound 49]
–	29 nM	CC(=O)N1CCN(CCC2CCCN(C(=O)c3ccc(NC(=O)c4ccccc4C)cc3C)c3ccc(Cl)cc32)CC1 (centres unmarked) [Test Compound 53, 5-[2-(1-Acetyl-1-piperazinyl)ethyl]-7-chloro-1-[2-methyl-4-(2-methylbenzoylamino)benzoyl]-2,3,4,5-tetrahydro-1H-benzazepine hydrochloride]
–	11 nM	COC(=O)[C@@H]1CCCN1C(=O)COC1CCCN(C(=O)c2ccc(NC(=O)c3ccccc3C)cc2Cl)c2ccc(F)cc21 (stereo partly drawn) [Test Compound 23, 5-[(2-β-Methoxycarbonyl)-1-pyrrolidinylcarbonylmethoxy]-7-fluoro-1-[2-chloro-4-(2-methylbenzoylamino)benzoyl]-2,3,4,5-tetrahydro-1H-benzazepine]
–	9 nM	Cc1ccccc1C(=O)Nc1ccc(C(=O)N2CCCC(OCC(=O)NC3CCNCC3)c3cc(Cl)ccc32)c(C)c1 (centres unmarked) [Test Compound 57, 7-Chloro-5-[(4-piperidinyl)aminocarbonylmethoxy]-1-[2-methyl-4-(2-methylbenzoylamino)benzoyl]-2,3,4,5-tetrahydro-1H-benzazepine hydrochloride]
